US20210353633A1, “CYCLODEXTRIN-BASED FORMULATION OF A BCL-2 INHIBITOR” (LES LABORATOIRES SERVIER, priority 2018, published 2021)
Structures can show the parent of a compound that is named as a salt. Where two headings read alike, the source gives them in different places.

Experiment: Test of maximum solubility of Compound A, HCl in a HP-β-cyclodextrin as a function of the pH
Format: physicochemical
Conditions: Cavitron W7HP5 solution, aqueous with cosolvent or surfactant or cyclodextrin, thermodynamic from solid, Cavitron W7HP5 20% by weight, read-out: Solubility after 24 h
Description: The solubility of Compound A, HCl was studied in the presence of a HP-β-cyclodextrin as a function of the pH by means of various buffers (acetate pH=4 and phosphate pH=7.4).
0.75 g of sodium acetate trihydrate (NaC2H3O2, 3H2O) is introduced into a 250 mL graduated flask. 3.5 mL of 2 N acetic acid solution (produced from glacial acetic acid) are added. The volume is then made up to 250 mL by means of 0.9% NaCl solution, and the whole is then stirred. The pH is then adjusted to 4 by means of 1 N HCl solution.
2.075 g of monobasic potassium phosphate (KH2PO4) and 0.238 g of dibasic sodium phosphate (Na2HPO4) are dissolved in 100 mL of water. The whole is stirred until solubilisation is complete. The volume is then made up to 250 mL by means of 0.9% NaCl solution. The pH is adjusted to the desired value (7.4) by means of 1N sodium hydroxide solution.
2 g of the cyclodextrin studied (Cavitron™ W7HP5) are weighed into a 10 mL graduated flask. The volume is then made up to 10 mL by means of a water/0.9% NaCl mixture (80/20) or an acetate or phosphate buffer solution, depending on the desired pH.
Approximately 10 mg of Compound A, HCl are weighed. 1 mL of the medium containing the carrier to be tested, that is to say Cavitron™ W7HP5 without pH adjustment, Cavitron™ W7HP5 adjusted to pH=4 or Cavitron™ W7HP5 adjusted to pH=7.4, is then added. The whole is then placed under magnetic stirring. Then, 5 mg of Compound A, HCl are added. The operation is repeated if the compound solubilises. The mixture is stirred for 24 hours. The suspension so obtained is passed through a 0.45 μm filter before being analysed by HPLC chromatography.

solubility at 24 h (pH = 3.8, i.e. pH not adjusted): 24.6 mg/mL | solubility at 24 h (pH = 4 (acetate buffer)): 13 mg/mL | solubility at 24 h (pH = 7.4 (phosphate buffer)): 1.69 mg/mL
Compound: Cc1c(N(C(=O)c2cc(-c3cc(Cl)ccc3C(=O)N3Cc4ccccc4C[C@H]3CN3CCOCC3)n(C)c2C)c2ccc(O)cc2)cc(C#N)n1C [Compound A, HCl, 5-(5-chloro-2-{[(3S)-3-(morpholin-4-ylmethyl)-3,4-dihydroisoquinolin-2(1H)-yl]carbonyl}phenyl)-N-(5-cyano-1,2-dimethyl-1H-pyrrol-3-yl)-N-(4-hydroxyphenyl)-1,2-dimethyl-1H-pyrrole-3-carboxamide]
